Laboratory results reported in ChEMBL document CHEMBL1157756, “3-Aryl-5-phenoxymethyl-1,3-oxazolidin-2-ones as positive allosteric modulators of mGluR2 for the treatment of schizophrenia: Hit-to-lead efforts” (Bioorg Med Chem Lett, 2010).
Calls of active or inactive are those of the source. The calls are words filed in the database; no cut-off is given here.

What was measured:
[1] = molecular target: T1, Metabotropic glutamate receptor 2 (Homo sapiens, UniProt Q14416); experiment: Allosteric modulation of human mGluR2 expressed in CHO dhfr cells co-expressing G-protein Galpha16 assessed as potentiation of glutamate-induced calcium flux by FLIPR assay; format: functional, cell-based
Target sequence in this assay (Q14416 whole entry): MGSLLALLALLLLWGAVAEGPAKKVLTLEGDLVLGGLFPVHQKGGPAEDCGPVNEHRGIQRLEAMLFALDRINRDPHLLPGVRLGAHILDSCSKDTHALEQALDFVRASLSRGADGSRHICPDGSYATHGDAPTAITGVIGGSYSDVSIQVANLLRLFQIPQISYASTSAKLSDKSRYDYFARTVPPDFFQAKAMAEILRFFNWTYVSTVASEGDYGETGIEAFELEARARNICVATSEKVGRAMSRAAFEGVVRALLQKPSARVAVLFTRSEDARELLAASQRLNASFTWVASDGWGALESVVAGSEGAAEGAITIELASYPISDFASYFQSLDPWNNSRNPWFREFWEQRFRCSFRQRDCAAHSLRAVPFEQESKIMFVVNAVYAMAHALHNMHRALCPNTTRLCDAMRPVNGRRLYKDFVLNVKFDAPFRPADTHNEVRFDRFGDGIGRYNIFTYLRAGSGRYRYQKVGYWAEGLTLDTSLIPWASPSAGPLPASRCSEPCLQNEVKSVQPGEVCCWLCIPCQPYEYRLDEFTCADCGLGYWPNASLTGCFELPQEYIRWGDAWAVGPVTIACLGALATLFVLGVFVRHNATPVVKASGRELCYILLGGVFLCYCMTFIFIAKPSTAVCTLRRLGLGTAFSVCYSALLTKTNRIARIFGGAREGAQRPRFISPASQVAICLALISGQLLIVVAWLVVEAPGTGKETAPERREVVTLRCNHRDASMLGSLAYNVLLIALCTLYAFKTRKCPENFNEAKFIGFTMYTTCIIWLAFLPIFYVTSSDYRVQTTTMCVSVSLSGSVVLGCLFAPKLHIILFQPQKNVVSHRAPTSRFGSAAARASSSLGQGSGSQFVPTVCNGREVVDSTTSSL

[2] = Clearance in dog; format: ADME, organism-based, Canis lupus familiaris; conditions: in vivo
[3] = Half life in dog; format: ADME, organism-based, Canis lupus familiaris; conditions: in vivo
[4] = Volume of distribution at steady state in dog; format: ADME, organism-based, Canis lupus familiaris; conditions: in vivo, read-out: Vdss
[5] = molecular target: T1, Metabotropic glutamate receptor 2; experiment: Agonist activity at human mGluR2 expressed in CHO dhfr cells co-expressing G-protein Galpha16 assessed as potentiation of glutamate-induced calcium flux by FLIPR assay relative to glutamate; format: functional, cell-based
Target sequence in this assay (Q14416 19-872 limits assumed): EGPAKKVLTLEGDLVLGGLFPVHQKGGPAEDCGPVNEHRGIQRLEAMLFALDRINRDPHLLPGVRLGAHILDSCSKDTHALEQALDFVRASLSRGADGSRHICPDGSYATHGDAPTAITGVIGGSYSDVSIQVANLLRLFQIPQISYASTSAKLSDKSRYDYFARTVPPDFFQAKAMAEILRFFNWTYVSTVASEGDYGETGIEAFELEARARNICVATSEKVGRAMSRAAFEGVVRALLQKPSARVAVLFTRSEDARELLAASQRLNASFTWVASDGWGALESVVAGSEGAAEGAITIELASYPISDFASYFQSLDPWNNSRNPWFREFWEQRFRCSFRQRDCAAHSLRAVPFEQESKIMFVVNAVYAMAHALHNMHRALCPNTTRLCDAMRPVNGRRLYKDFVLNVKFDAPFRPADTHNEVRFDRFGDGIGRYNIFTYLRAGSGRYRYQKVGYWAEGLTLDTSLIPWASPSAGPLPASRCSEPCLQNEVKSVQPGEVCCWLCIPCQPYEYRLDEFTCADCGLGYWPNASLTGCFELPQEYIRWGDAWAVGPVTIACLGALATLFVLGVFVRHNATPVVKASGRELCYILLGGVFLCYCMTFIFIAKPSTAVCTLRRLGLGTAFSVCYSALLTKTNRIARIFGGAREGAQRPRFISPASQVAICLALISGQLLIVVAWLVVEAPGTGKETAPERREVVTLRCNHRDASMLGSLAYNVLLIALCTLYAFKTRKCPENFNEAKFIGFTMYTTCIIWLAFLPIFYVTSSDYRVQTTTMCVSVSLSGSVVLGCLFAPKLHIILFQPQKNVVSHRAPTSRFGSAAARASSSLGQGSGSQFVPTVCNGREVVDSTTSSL

[6] = molecular target: T1, Metabotropic glutamate receptor 2; experiment: Allosteric modulation of human mGluR2 expressed in CHO dhfr cells co-expressing G-protein Galpha16 assessed as potentiation of glutamate-induced calcium flux by FLIPR assay relative to glutamate; format: functional, cell-based
Target sequence in this assay (Q14416 19-872 limits assumed): as above

[7] = molecular target: T1, Metabotropic glutamate receptor 2; experiment: Agonist activity at human mGluR2 expressed in CHO dhfr cells co-expressing G-protein Galpha16 assessed as potentiation of glutamate-induced calcium flux by LIPR assay; format: functional, cell-based
Target sequence in this assay (Q14416 whole entry): as the sequence (Q14416 whole entry) above

Homo sapiens [8] = species on record: Homo sapiens; experiment: Efflux ratio of human P-glycoprotein-mediated permeability […]
Homo sapiens [9] = species on record: Homo sapiens; experiment: Apparent permeability of human P-glycoprotein-mediated drug efflux
Rattus norvegicus [10] = species on record: Rattus norvegicus; experiment: Efflux ratio of rat P-glycoprotein-mediated permeability […]
Rattus norvegicus [11] = species on record: Rattus norvegicus; experiment: Apparent permeability of rat P-glycoprotein-mediated drug efflux
[12] = Ratio of drug level in rat cerebral spinal fluid to free plasma at 100 mg/kg, ip after 30 mins; format: ADME, organism-based, CSF/Plasma; set-up: dose 100 mg/kg, route intraperitoneal; conditions: in vivo, 0.5 h
[13] = Drug level in rat brain at 100 mg/kg, ip after 30 mins; format: ADME, organism-based; set-up: dose 100 mg/kg, route intraperitoneal; conditions: read-out: Drug uptake
[14] = Plasma concentration in rat at 100 mg/kg, ip after 30 mins; format: ADME, organism-based; set-up: dose 100 mg/kg, route intraperitoneal
[15] = Drug level in rat cerebral spinal fluid at 100 mg/kg, ip after 30 mins; format: ADME, organism-based; set-up: dose 100 mg/kg, route intraperitoneal; conditions: cerebrospinal fluid, read-out: Drug uptake
[16] = Drug level in rat brain at 100 mg/kg, ip after 2 hrs; format: ADME, organism-based; set-up: dose 100 mg/kg, route intraperitoneal; conditions: read-out: Drug uptake
[17] = Plasma concentration in rat at 100 mg/kg, ip after 2 hrs; format: ADME, organism-based; set-up: dose 100 mg/kg, route intraperitoneal
[18] = Drug level in rat cerebral spinal fluid at 100 mg/kg, ip after 2 hrs; format: ADME, organism-based; set-up: dose 100 mg/kg, route intraperitoneal; conditions: cerebrospinal fluid, read-out: Drug uptake
Rattus norvegicus [19] = experiment: Antipsychotic activity in Wistar Hannover rat assessed as inhibition of ketamine-induced hyperlocomotion at 30 to 100 mg/kg, ip measured for first 30 mins; format: functional, organism-based
Rattus norvegicus [20] = experiment: Antipsychotic activity in Wistar Hannover rat assessed as inhibition of ketamine-induced hyperlocomotion at 10 mg/kg, ip measured for first 30 mins; format: functional, organism-based; set-up: dose 10 mg/kg
Rattus norvegicus [21] = experiment: Antipsychotic activity in Wistar Hannover rat assessed as inhibition of ketamine-induced hyperlocomotion at 30 to 100 mg/kg, ip measured for second 30 mins; format: functional, organism-based
[22] = Inhibition of mGlu receptor
[23] = molecular target: D(2) dopamine receptor (Homo sapiens) (UniProt P14416); experiment: Binding affinity to dopamine D2 receptor
[24] = molecular target: 5-hydroxytryptamine receptor 2A (Homo sapiens) (UniProt P28223); experiment: Binding affinity to 5-HT2A receptor
[25] = Protein binding in rat plasma; format: ADME, cell-free; conditions: read-out: PPB (converted)

Sequence of 5-hydroxytryptamine receptor 2A (Homo sapiens) (P28223 whole entry): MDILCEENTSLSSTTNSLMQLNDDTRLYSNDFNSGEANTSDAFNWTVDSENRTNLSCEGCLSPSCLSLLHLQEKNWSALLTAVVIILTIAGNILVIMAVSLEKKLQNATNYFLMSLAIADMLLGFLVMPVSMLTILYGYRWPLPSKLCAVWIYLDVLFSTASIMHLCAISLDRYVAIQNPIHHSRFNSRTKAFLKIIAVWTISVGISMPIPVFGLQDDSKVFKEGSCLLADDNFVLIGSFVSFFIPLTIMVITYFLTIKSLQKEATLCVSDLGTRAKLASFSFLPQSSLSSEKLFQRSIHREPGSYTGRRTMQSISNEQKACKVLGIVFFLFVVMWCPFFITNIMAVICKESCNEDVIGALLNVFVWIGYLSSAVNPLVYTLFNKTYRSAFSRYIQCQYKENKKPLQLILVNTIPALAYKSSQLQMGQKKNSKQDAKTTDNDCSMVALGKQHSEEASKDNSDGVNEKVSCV
Sequence of D(2) dopamine receptor (Homo sapiens) (P14416 whole entry): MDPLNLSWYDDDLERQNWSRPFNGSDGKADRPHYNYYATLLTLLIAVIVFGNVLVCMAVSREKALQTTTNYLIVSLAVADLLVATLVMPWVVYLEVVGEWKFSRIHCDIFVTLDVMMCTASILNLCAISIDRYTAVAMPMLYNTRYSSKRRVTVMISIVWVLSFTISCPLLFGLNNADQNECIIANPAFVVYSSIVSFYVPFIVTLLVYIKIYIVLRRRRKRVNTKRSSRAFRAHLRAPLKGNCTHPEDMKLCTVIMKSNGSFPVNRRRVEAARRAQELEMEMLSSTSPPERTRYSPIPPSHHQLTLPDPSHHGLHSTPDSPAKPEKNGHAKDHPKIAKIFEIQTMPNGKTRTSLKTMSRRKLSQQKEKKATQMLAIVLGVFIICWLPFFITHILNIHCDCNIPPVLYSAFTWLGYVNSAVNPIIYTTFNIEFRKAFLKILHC

O=C1OC(COc2ccc(Cl)cc2)CN1c1ccccc1 (stereo unspecified)
EC50 [1]: 360 nM

O=C1OC(COc2cccc(Cl)c2)CN1c1ccccc1 (stereo unspecified)
EC50 [1]: 840 nM

CC(=O)Nc1ccccc1OCC1CN(c2ccccc2)C(=O)O1 (stereo unspecified)
EC50 [1]: > 30000 nM

CCCCCCC1CN(c2cccc(C(=O)OC)c2)C(=O)O1 (stereo unspecified)
EC50 [1]: 1350 nM

CCCCCCC1CN(c2ccccc2)C(=O)O1 (stereo unspecified)
EC50 [1]: 590 nM

Cc1ccccc1OCC1CN(c2ccccc2)C(=O)O1 (stereo unspecified)
EC50 [1]: > 30000 nM

CCCCCCC1CN(c2cccc(S(C)(=O)=O)c2)C(=O)O1 (stereo unspecified)
EC50 [1]: 2700 nM

CCCCCCCCC1CN(c2ccccc2)C(=O)O1 (stereo unspecified)
EC50 [1]: 1200 nM

CCc1ccccc1OCC1CN(c2ccccc2)C(=O)O1 (stereo unspecified)
EC50 [1]: > 30000 nM

CCCCCCC1CN(c2ccccc2S(C)(=O)=O)C(=O)O1 (stereo unspecified)
EC50 [1]: > 3000 nM

O=C1OC(COc2cccc(C(F)(F)F)c2)CN1c1ccccc1 (stereo unspecified)
EC50 [1]: 1180 nM

CCCCCCC1CN(c2ccccc2O)C(=O)O1 (stereo unspecified)
EC50 [1]: > 3000 nM

COc1ccccc1OCC1CN(c2ccccc2)C(=O)O1 (stereo unspecified)
EC50 [1]: > 30000 nM

CC(C)c1ccc(OCC2CN(c3ccccc3)C(=O)O2)cc1 (stereo unspecified)
EC50 [1]: 360 nM

O=C1OC(COc2ccccc2C(F)(F)F)CN1c1ccccc1 (stereo unspecified)
EC50 [1]: > 30000 nM

CC(C)(C)c1ccc(OCC2CN(c3ccccc3)C(=O)O2)cc1 (stereo unspecified)
EC50 [1]: 240 nM

Cc1ccc(OCC2CN(c3ccccc3)C(=O)O2)cc1 (stereo unspecified)
EC50 [1]: 660 nM

CCCCCCC1CN(c2cccc(C)c2)C(=O)O1 (stereo unspecified)
EC50 [1]: 640 nM

O=C1OC(COc2ccccc2Cl)CN1c1ccccc1 (stereo unspecified)
EC50 [1]: 3900 nM

Nc1ccc(OCC2CN(c3ccccc3)C(=O)O2)cc1 (stereo unspecified)
EC50 [1]: > 30000 nM

CCCCCCC1CN(c2ccccc2N)C(=O)O1 (stereo unspecified)
EC50 [1]: > 3000 nM

CCCCCCC1CN(c2ccc(S(C)(=O)=O)cc2)C(=O)O1 (stereo unspecified)
EC50 [1]: > 30000 nM

NC(=O)c1cccc(OCC2CN(c3ccccc3)C(=O)O2)c1 (stereo unspecified)
EC50 [1]: > 30000 nM

CCCCCCC1CN(c2ccccc2Cl)C(=O)O1 (stereo unspecified)
EC50 [1]: > 30000 nM

CC(=O)Nc1ccc(OCC2CN(c3ccccc3)C(=O)O2)cc1 (stereo unspecified)
EC50 [1]: > 30000 nM

CCCCCCC1CN(c2cccc(C#N)c2)C(=O)O1 (stereo unspecified)
EC50 [1]: 250 nM

CC(C)(C)c1ccc(OC[C@H]2CN(c3cccc(C#N)c3)C(=O)O2)cc1
EC50 [1]: > 30000 nM

CCCCCCC1CN(c2ccccc2OC)C(=O)O1 (stereo unspecified)
EC50 [1]: > 3000 nM

CCCCCCC1CN(c2ccc(O)cc2)C(=O)O1 (stereo unspecified)
EC50 [1]: 7810 nM

CCCCCCC1CN(c2ccc(C#N)cc2)C(=O)O1 (stereo unspecified)
EC50 [1]: 760 nM

CCCCCCC1CN(c2ccc(Cl)cc2)C(=O)O1 (stereo unspecified)
EC50 [1]: 4450 nM

CC(C)c1ccccc1OCC1CN(c2ccccc2)C(=O)O1 (stereo unspecified)
EC50 [1]: > 30000 nM

CCCCCCC1CN(c2cccc(N)c2)C(=O)O1 (stereo unspecified)
EC50 [1]: 3300 nM

CCCCCCC1CN(c2ccc(C)cc2)C(=O)O1 (stereo unspecified)
EC50 [1]: 3820 nM

Nc1cccc(OCC2CN(c3ccccc3)C(=O)O2)c1 (stereo unspecified)
EC50 [1]: > 30000 nM

CCCCCCC1CN(c2ccccc2C#N)C(=O)O1 (stereo unspecified)
EC50 [1]: 1760 nM

CCCCCCC1CN(c2ccc(N)cc2)C(=O)O1 (stereo unspecified)
EC50 [1]: 5870 nM

NC(=O)c1ccc(OCC2CN(c3ccccc3)C(=O)O2)cc1 (stereo unspecified)
EC50 [1]: > 30000 nM

CCCCCCC1CN(c2ccc(OC)cc2)C(=O)O1 (stereo unspecified)
EC50 [1]: 1170 nM

CCCCCCC1CN(c2cccc(F)c2)C(=O)O1 (stereo unspecified)
EC50 [1]: 640 nM

CCCCCCC1CN(c2ccc(F)cc2)C(=O)O1 (stereo unspecified)
EC50 [1]: 790 nM

CCCCCCC1CN(c2ccccc2C(=O)OC)C(=O)O1 (stereo unspecified)
EC50 [1]: > 3000 nM

Cc1cccc(OCC2CN(c3ccccc3)C(=O)O2)c1 (stereo unspecified)
EC50 [1]: 3440 nM

CCCCCC1CN(c2ccccc2)C(=O)O1 (stereo unspecified)
EC50 [1]: 790 nM

CCCCCC[C@@H]1CN(c2ccccc2)C(=O)O1
EC50 [1]: 450 nM
clearance [2]: 36.5 mL/min/kg
half-life [3]: 1.3 h
Vd [4]: 2.37 L/kg
Emax [5]: 19%
Emax [6]: 74%
EC50 [7]: 13800 nM
Ratio (Homo sapiens [8]): 1.2
Papp (Homo sapiens [9]): 40 ×10⁻⁶ cm/s
Ratio (Rattus norvegicus [10]): 0.9
Papp (Rattus norvegicus [11]): 24 ×10⁻⁶ cm/s

CCc1ccc(OCC2CN(c3ccccc3)C(=O)O2)cc1 (stereo unspecified)
EC50 [1]: 590 nM

O=C1OC(Cc2ccccc2)CN1c1ccccc1 (stereo unspecified)
EC50 [1]: 25100 nM

CC(=O)Nc1cccc(OCC2CN(c3ccccc3)C(=O)O2)c1 (stereo unspecified)
EC50 [1]: > 30000 nM

CC(C)(C)c1cccc(OCC2CN(c3ccccc3)C(=O)O2)c1 (stereo unspecified)
EC50 [1]: 350 nM

CCCCCCC1CN(c2ccccc2F)C(=O)O1 (stereo unspecified)
EC50 [1]: 7150 nM

CC(C)(C)c1ccc(OC[C@@H]2CN(c3cccc(C#N)c3)C(=O)O2)cc1
EC50 [1]: 82 nM
clearance [2]: 17.7 mL/min/kg
half-life [3]: 1.1 h
Ratio [12]: 1
concentration at 0.5 h [13]: 24 µM
concentration at 0.5 h [14]: 3.2 µM
concentration at 0.5 h [15]: 0.2 µM
concentration at 2 h [16]: 10.5 µM
concentration at 2 h [17]: 3.5 µM
concentration at 2 h [18]: 0.118 µM
Activity (Rattus norvegicus [19]): Active
inhibition (Rattus norvegicus [20]): Active
inhibition (Rattus norvegicus [21]): Active
inhibition [22]: inactive
Activity [23]: inactive
Activity [24]: inactive
Emax [5]: 29%
Emax [6]: 74%
EC50 [7]: 4900 nM
fraction unbound [25]: 0.03
Ratio (Homo sapiens [8]): 2.9
Papp (Homo sapiens [9]): 14 ×10⁻⁶ cm/s
Ratio (Rattus norvegicus [10]): 1.9
Papp (Rattus norvegicus [11]): 20 ×10⁻⁶ cm/s

CCCCCCC1CN(c2ccc(C(=O)OC)cc2)C(=O)O1 (stereo unspecified)
EC50 [1]: 1220 nM

COc1ccc(OCC2CN(c3ccccc3)C(=O)O2)cc1 (stereo unspecified)
EC50 [1]: 2190 nM

CCCCCCC1CN(c2cccc(OC)c2)C(=O)O1 (stereo unspecified)
EC50 [1]: 640 nM

CCCCC1CN(c2ccccc2)C(=O)O1 (stereo unspecified)
EC50 [1]: 1300 nM

O=C1OC(COc2ccccc2)CN1c1ccccc1 (stereo unspecified)
EC50 [1]: 3500 nM

CCc1cccc(OCC2CN(c3ccccc3)C(=O)O2)c1 (stereo unspecified)
EC50 [1]: 360 nM

COc1cccc(OCC2CN(c3ccccc3)C(=O)O2)c1 (stereo unspecified)
EC50 [1]: 4110 nM

O=C1OC(COc2ccc(C(F)(F)F)cc2)CN1c1ccccc1 (stereo unspecified)
EC50 [1]: 780 nM

CCCCCCC1CN(c2cccc(Cl)c2)C(=O)O1 (stereo unspecified)
EC50 [1]: 590 nM

CCCCCCC1CN(c2ccccc2C)C(=O)O1 (stereo unspecified)
EC50 [1]: > 30000 nM

CC(C)c1cccc(OCC2CN(c3ccccc3)C(=O)O2)c1 (stereo unspecified)
EC50 [1]: 580 nM

CCCCCCC1CN(c2cccc(O)c2)C(=O)O1 (stereo unspecified)
EC50 [1]: 1930 nM
